Source: ChEMBL document CHEMBL3045309, “Synthesis and cardiovascular activity of difluro-substituted hexahydroquinoline” (2008)

Columns and labels:
Thoracic artery = assay: Inhibition of potassium chloride-induced contraction in Rattus norvegicus albino (rat) thoracic artery at 10^-5 mol/l after 10 min; assay type: functional
Ileum = assay: Inhibition of barium chloride-induced contraction inRattus norvegicus albino (rat) ileum at 10^-5 mol/l after 10 min; assay type: functional

COC(=O)C1=C(C)NC2=C(C(=O)C(C)(C)CC2)C1c1c(F)cccc1F (stereo unspecified)
inhibition at 10 µM (Thoracic artery): 23.6%
inhibition at 10 µM (Ileum): 79.4%

CCOC(=O)C1=C(C)NC2=C(C(=O)C(C)(C)CC2)C1c1cc(F)ccc1F (stereo unspecified)
inhibition at 10 µM (Thoracic artery): 21.4%
inhibition at 10 µM (Ileum): 86.8%

COC(=O)C1=C(C)NC2=C(C(=O)CC(C)(C)C2)C1c1c(F)cccc1F (stereo unspecified)
inhibition at 10 µM (Ileum): 74.6%

CCN(CC)C(=O)C1=C(C)NC2=C(C(=O)C(C)(C)CC2)C1c1cccc(F)c1F (stereo unspecified)
inhibition at 10 µM (Thoracic artery): 37%
inhibition at 10 µM (Ileum): 54.2%

CCN(CC)C(=O)C1=C(C)NC2=C(C(=O)CC(C)(C)C2)C1c1cccc(F)c1F (stereo unspecified)
inhibition at 10 µM (Thoracic artery): 31.5%
inhibition at 10 µM (Ileum): 51.3%

COC(=O)C1=C(C)NC(C)=C(C(=O)OCCN(C)Cc2ccccc2)C1c1cccc([N+](=O)[O-])c1 (stereo unspecified) [NICARDIPINE]
inhibition at 10 µM (Thoracic artery): 15.9%
inhibition at 10 µM (Ileum): 70%
